This note sets out measurements from US8741889B2, “Method of treating non-small cell lung cancer and colon cancer with gamma-secretase inhibitor” (Hoffmann-La Roche Inc, priority 2008, dated 2014).

Test [1] concerns A549 non-small cell lung carcinoma (NSCLC) xenografts. In words: Antitumor efficacy in A549 NSCLC xenografts in nude mice. The settings on record: for % TGI: day 47. Format: in vivo. On the procedure: In the current study, compound (1) was evaluated for its antitumor activity against the A549 NSCLC human xenograft model in nude mice. A549 cells appear to have a functional Notch signaling pathway since receptors, ligands, and downstream effectors such as Hes-1 and Hey-1 are expressed (as assessed by PCR-based gene expression profiling). A549 cells have at least one identifiable defect in the Notch pathway; the negative regulator Numb is expressed only at low levels. In vitro, nM concentrations of compound (1) induce a less transformed phenotype in A549 cells and loss of growth in soft agar […], which is consistent with mechanistic inhibition of Notch activation. […] Female nude mice (10/group), obtained from Charles River Laboratories (Wilmington, Mass.) were used when they were approximately 13-14 weeks old and weighed approximately 23-25 grams. The health of all animals was determined daily by gross observation of experimental animals and by the analyses of blood samples of sentinel animals that were housed on the shared shelf racks. All animals were allowed to acclimate and recover from any shipping related stress for a minimum of 72 hours prior to experimental use. Autoclaved water and irradiated food [5058-ms Pico chow (mouse) Purina, Richmond, Ind.] were provided ad libitum, and the animals were maintained on a 12 hour light and dark cycle. Cages, bedding and water bottles were autoclaved before use and were changed weekly. A549 human NSCLC cells were purchased from ATCC (Manassas, Va.) and cultured in RPMI 1640 culture medium with 10% (v/v) FBS. Cells were grown and harvested by members of the Oncology In Vivo Section (OIVS). Each mouse received 7.5×10^6 cells in 0.2 ml PBS (Phosphate Buffered Saline) implanted subcutaneously in the right hind flank by members of OIVS on Aug. 17, 2006. […] Compound (1) was mixed vigorously prior to withdrawal and administration. Formulated compound and vehicle were prepared weekly and stored at 4° C., as set out below. […] Treatment began on Sep. 12, 2006 (day 26 post tumor cell implant). […] 19, 2006 (day 33 post tumor cell implant). […] 3, 2006 (day 47 post tumor cell implant). Efficacy data was graphically represented as the mean tumor volume+standard error of the mean (SEM). Tumor volumes of treated groups were presented as percentages of tumor volumes of the control groups (% T/C), using the formula: 100×((T−T0)/(C−C0)), where T represented mean tumor volume of a treated group on a specific day during the experiment, T0 represented mean tumor volume of the same treated group on the first day of treatment; C represented mean tumor volume of a control group on the specific day during the experiment, and C0 represented mean tumor volume of the same treated group on the first day of treatment. Tumor volume (in cubic millimeters) was calculated using the ellipsoid formula: (D×(d2))/2 where ‘D’ represents the large diameter of the tumor, and ‘d’ represents the small diameter. In some cases, tumor regression and/or percent change in tumor volume was calculated using the formula: ((T−T0)/T0)×100 where ‘T’ represents mean tumor volume of the treated group at a particular day, and ‘T0’ represents mean tumor volume of the same treated group at initiation of treatment. Statistical analysis was determined by the rank sum test and One Way Anova and a post-hoc Bonferroni t-test (SigmaStat, version 2.0, Jandel Scientific, San Francisco, Calif.). Differences between groups were considered to be significant when the probability value (p) was ≦0.05. […] Percent tumor growth inhibition was calculated on day 47, which was the final day of treatment for the 21-day treated groups, 7 days post-treatment for 14-day treated groups (14+/7−), or 14-days post treatment for the 7-day treated group (7+/14−).

In test [2] the test system is truncated human Notch 1 processing. Nature of the test: Cellular Notch luciferase reporter assay in HEK293 cells. Format: cell-based. On the procedure:
Multiple in vitro assays were utilized to characterize the potency and selectivity of compound (1). The primary in vitro assay uses cell-free membrane preparations to provide the -secretase enzyme complex as an in vitro assay. […] The cellular processing of APP is measured using an ELISA-based readout. HEK293 cells have been engineered to over-express APP. Processing is measured by an ELISA-based quantitation of the A 1-40 secretase product. Cellular Notch inhibitory activity is measured using HEK293 cell line stably expressing a truncated human Notch 1 fused in its intracellular domain to a VP16/[…] transcriptional activator, which drives a firefly luciferase gene Inhibition of Notch processing produces a reduction in luciferase reporter activity as measured by its chemo luminescence.

A word on the IC50: it is the concentration that inhibits the measured activity by half.

Regarding `CC(C)(C(=O)NCC(F)(F)C(F)(F)F)C(=O)N[C@@H]1C(=O)Nc2ccccc2-c2ccccc21` [Compound (1), 2,2-Dimethyl-N—((S)-6-oxo-6,7-dihydro-5H-dibenzo[b,d]azepin-7-yl)-N′-(2,2,3,3,3-pentafluoro-propyl)-malonamide], the “% TGI” value came to 83% in test [1] (3 mg/kg po bid × 21 days); 83% in test [1] (3 mg/kg po bid, 14+/7− schedule); 76% in test [1] (3 mg/kg po qd × 21 days); 66% in test [1] (3 mg/kg po qd, 14+/7− schedule); 72% in test [1] (10 mg/kg po bid × 21 days); 80% in test [1] (10 mg/kg po bid, 14+/7− schedule). The “% TGI” value in test [1] (10 mg/kg po qd × 21 days) is given as 70%; in test [1] (10 mg/kg po qd, 14+/7− schedule), 77%; in test [1] (30 mg/kg po bid, 14+/7− schedule) it was 79%; in test [1] (30 mg/kg po qd × 21 days), 66%; in test [1] (30 mg/kg po qd, 14+/7− schedule), 79%; in test [1] (60 mg/kg po bid, 7+/14− schedule), 91%. The “% TGI” value in test [1] (60 mg/kg po qd, 14+/7− schedule) is on record as 88%. For the same compound, the “inhibition of tumor growth sustained post treatment” value in test [1] (60 mg/kg bid, 7+/14− schedule (to day 67)) is “up to 34 days”; in test [1] (all 21-day treated groups (to day 63)) it was “up to 16 days”. In test [1] (3, 10 or 30 mg/kg once or twice daily for 14 (14+/7−) or 21 days), the “% TGIs (range)” value was 66-83%. Also, in test [1] (all qd or bid groups, 14+/7− schedule (to day 63)), the “growth suppression lasting post treatment” value is listed as “up to 23 days”. Further, the “tumor growth inhibition (range)” value in test [1] (seven or fourteen days of BID treatment out of a 21 day cycle) is recorded as 79-91%. Besides, the IC50 in test [2] was 5 nM.
